Data published in US6586457B2, “Methods for inhibiting bone resorption” (Merck & Co., Inc., priority 1998, dated 2003).
“Also recorded” adds a separate entry of the source.

Experiments:
ROS 17/2.8 cells = experiment: Intracellular cAMP in ROS 17/2.8 cells; type: cell-based, rat
Procedure: (§1) RCT-1 and RCT-3 are clonal cell lines immortalized by SV-40 large T antigen from cells released from fetal rat calvair by a cmbination collagenase/hyaluronidase digestion. RCT-1 cells, derived from cells released during the first 10 minutes of digestion (fraction I), are cultured in RPMI 1640 medium (BRL) with 10% fetal bovine serum and 0.4 mg/ml G418 (BRL). […] RCT-3 cells, immortalized from osteoblast-enriched fraction III cells, are cultured in F-12 medium (BRL) with 5% Fetal bovine serum and 0.4 mg/ml G418. TRAB-11 cells are also immortalized by SV40 large T antigen from adult rat tibia and are cultured in RPMI 1640 medium with 10% FBS and 0.4 mg/ml G418. ROS 17/2.8 rat osteosarcoma cells are cultured in F-12 containing 5% FBS. Osteoblast-enriched (fraction III) primary fetal rat calvaria cells are obtained by collagenase/hyaluronidase digestion of calvariae of 19 day-old rat fetuses. See Rodan et al., Growth stimulation of rat calvaria osteoblastic cells by acidic FGF, Endocrinology, 121, 1919-1923 (1987), which is incorporated by reference herein in its entirety. Cells are released during 30-50 minutes digestion (fraction III) and are cultured in F-12 medium containing 5% FBS. […]

EP4 mRNA [1] = experiment: EP4 mRNA levels in RCT-3 cells (Northern blot); type: cell-based, rat
Procedure: RCT-1 and RCT-3 are clonal cell lines immortalized by SV-40 large T antigen from cells released from fetal rat calvair by a cmbination collagenase/hyaluronidase digestion. RCT-1 cells, derived from cells released during the first 10 minutes of digestion (fraction I), are cultured in RPMI 1640 medium (BRL) with 10% fetal bovine serum and 0.4 mg/ml G418 (BRL). […] RCT-3 cells, immortalized from osteoblast-enriched fraction III cells, are cultured in F-12 medium (BRL) with 5% Fetal bovine serum and 0.4 mg/ml G418. TRAB-11 cells are also immortalized by SV40 large T antigen from adult rat tibia and are cultured in RPMI 1640 medium with 10% FBS and 0.4 mg/ml G418. ROS 17/2.8 rat osteosarcoma cells are cultured in F-12 containing 5% FBS. Osteoblast-enriched (fraction III) primary fetal rat calvaria cells are obtained by collagenase/hyaluronidase digestion of calvariae of 19 day-old rat fetuses. See Rodan et al., Growth stimulation of rat calvaria osteoblastic cells by acidic FGF, Endocrinology, 121, 1919-1923 (1987), which is incorporated by reference herein in its entirety. Cells are released during 30-50 minutes digestion (fraction III) and are cultured in F-12 medium containing 5% FBS. Total RNA is extracted from the tibial metaphysis or diaphysis and calvaria using a guanidinium isothiocyanate-phenol-chloroform method after pulverizing frozen bone samples by a tissue homogenizer. […]

EP4 mRNA [2] = experiment: In situ hybridization of EP4 expression in tibial bone marrow cells; type: in vivo, rat; conditions: rats, single anabolic dose
Procedure: For mRNA localization experiments, 5-week old Sprague-Dawley rats (Charles River) are euthanized by CO2, their tibiae and calvariae are excised, cleaned of soft tissues and frozen immediately in liquid nitrogen. For EP4 regulation experiments, 6-week old rats are given a single injection of either vehicle (7% ethanol in sterile water) or an anabolic dose of PGE2 (Cayman Chemical, Ann Arbor, Mich.), 3-6 mg/kg in the same vehicle) intraperitoneally. Animals are euthenized at several time points post-injection and their tibiae and calvariae, as well as samples from lung and kidney tissues are frozen in liquid nitrogen.
Frozen tibiae are sectioned coronally at […] thickness and sections are mounted on charged slides (Probe On Plus, Fisher Scientific, Springfield, N.J.) and are kept at −70° C. until hybridization. cRNA probes are labeled with ^35S-UTPgS (ICN, Costa Mesa, Calif.) using a Riboprobe II kit (Promega Madison, Wis.). Hybridization is performed overnight at 50° C. […]
In situ hybridization is used in order to localize cells expressing EP4 in bone. In control experiment (vehicle-injected) rats, low expression of EP4 was detected in bone marrow cells. […]

EP4 mRNA [3] = experiment: EP4 mRNA levels in vivo in bone tissue after systemic administration (Northern blot); parameters: species or system rat
Procedure: For mRNA localization experiments, 5-week old Sprague-Dawley rats (Charles River) are euthanized by CO2, their tibiae and calvariae are excised, cleaned of soft tissues and frozen immediately in liquid nitrogen. For EP4 regulation experiments, 6-week old rats are given a single injection of either vehicle (7% ethanol in sterile water) or an anabolic dose of PGE2 (Cayman Chemical, Ann Arbor, Mich.), 3-6 mg/kg in the same vehicle) intraperitoneally. Animals are euthenized at several time points post-injection and their tibiae and calvariae, as well as samples from lung and kidney tissues are frozen in liquid nitrogen. Total RNA is extracted from the tibial metaphysis or diaphysis and calvaria using a guanidinium isothiocyanate-phenol-chloroform method after pulverizing frozen bone samples by a tissue homogenizer. See P. Chomczynski et al., Single-step method of RNA isolation by acid guanidium thiocyanate-phenol-chloroform extraction., Analyt Biochem, 162, 156-159 (1987), which is incorporated by reference herein in its entirety. RNA samples ([…]) are separated on 0.9% agarose/formaldehyde gels and transferred onto nylon membranes (Boehringer Mannheim, Germany). Membranes are prehybridized in Hybrisol I (Oncor, Gaithersburg, Md.) and 0.5 mg/ml sonicated salmon sperm DNA (Boehringer) at 42° C. for 3 hours and are hybridized at 42° C. with rat EP2 and mouse EP4 cDNA probes labeled with [^32P]-dCTP (Amersham, Buckinghamshire, UK) by random priming using the rediprime kit (Amersham). After hybridization, membranes are washed 4 times in 2×SSC+0.1% SDS at room temperature for a total of 1 hour and once with 0.2×SSC+0.1% SDS at 55° C. for 1 hour and then exposed to Kodak XAR 2 film at −70° C. using intensifying screens. After developing the films, bound probes are removed twice with 0.1% SDS at 80° C. and membranes are hybridized with a human GAPDH (Glyceraldehyde 3-Phosphate Dehydrogenase) cDNA probe (purchased from Clontech, Palo Alto, Calif.) for loading control. To examine if PGE2 regulates EP4 mRNA levels in vivo in bone tissue, […] male rats are injected with PGE2 (3-6 mg/Kg).

EP2 mRNA [4] = experiment: EP2 mRNA in vivo in bone tissue after systemic administration; conditions: RP-1 cells and rat bone tissue
Procedure: For mRNA localization experiments, 5-week old Sprague-Dawley rats (Charles River) are euthanized by CO2, their tibiae and calvariae are excised, cleaned of soft tissues and frozen immediately in liquid nitrogen. For EP4 regulation experiments, 6-week old rats are given a single injection of either vehicle (7% ethanol in sterile water) or an anabolic dose of PGE2 (Cayman Chemical, Ann Arbor, Mich.), 3-6 mg/kg in the same vehicle) intraperitoneally. Animals are euthenized at several time points post-injection and their tibiae and calvariae, as well as samples from lung and kidney tissues are frozen in liquid nitrogen. Total RNA is extracted from the tibial metaphysis or diaphysis and calvaria using a guanidinium isothiocyanate-phenol-chloroform method after pulverizing frozen bone samples by a tissue homogenizer. See P. Chomczynski et al., Single-step method of RNA isolation by acid guanidium thiocyanate-phenol-chloroform extraction., Analyt Biochem, 162, 156-159 (1987), which is incorporated by reference herein in its entirety. RNA samples ([…]) are separated on 0.9% agarose/formaldehyde gels and transferred onto nylon membranes (Boehringer Mannheim, Germany). […]

EP2 mRNA [5] = experiment: EP2 mRNA expression in RP-1 cells (Northern blot); type: cell-based, rat
Procedure: (§2) RP-1 periosteal cells are spontaneously immortalized from primary cultures of periosteal cells from tibae of 4-week old Sprague-Dawley rats and are cultured in DMEM (BRL, Gaithersburg, Md.) with 10% fetal bovine serum (JRH Biosciences, Lenexa, Kans.). […] Total RNA is extracted from the tibial metaphysis or diaphysis and calvaria using a guanidinium isothiocyanate-phenol-chloroform method after pulverizing frozen bone samples by a tissue homogenizer. See P. Chomczynski et al., Single-step method of RNA isolation by acid guanidium thiocyanate-phenol-chloroform extraction., Analyt Biochem, 162, 156-159 (1987), which is incorporated by reference herein in its entirety. RNA samples ([…]) are separated on 0.9% agarose/formaldehyde gels and transferred onto nylon membranes (Boehringer Mannheim, Germany). Membranes are prehybridized in Hybrisol I (Oncor, Gaithersburg, Md.) and 0.5 mg/ml sonicated salmon sperm DNA (Boehringer) at 42° C. for 3 hours and are hybridized at 42° C. with rat EP2 and mouse EP4 cDNA probes labeled with [^32P]-dCTP (Amersham, Buckinghamshire, UK) by random priming using the rediprime kit (Amersham). After hybridization, membranes are washed 4 times in 2×SSC+0.1% SDS at room temperature for a total of 1 hour and once with 0.2×SSC+0.1% SDS at 55° C. for 1 hour and then exposed to Kodak XAR 2 film at −70° C. using intensifying screens. […]

RCT-3 cells = experiment: Intracellular cAMP in RCT-3 cells; type: cell-based, rat
Procedure: as §1

TRAB-11 cells = experiment: Intracellular cAMP in TRAB-11 cells; type: cell-based, rat
Procedure: as §1

EP4 mRNA [6] = experiment: EP4 mRNA levels in RP-1 periosteal cells (Northern blot); type: cell-based, rat; conditions: 10^-6 M
Procedure: as §2

[7] = rats, 3-6 mg/Kg, systemic injection
[8] = young adult rats, 3-6 mg/kg, systemic

CCCCCC(O)/C=C/[C@H]1C(O)CC(=O)C1C/C=C\CCCC(=O)O (stereo partly shown) [PGE2]
effect on intracellular cAMP (ROS 17/2.8 cells): no effect on intracellular cAMP
effect on EP4 mRNA levels (EP4 mRNA [1]): no effect on EP4 mRNA levels
effect on expression of EP4 in bone marrow cells (EP4 mRNA [2]): increasesd the expression of EP4
effect on EP4 mRNA levels in tibial diaphysis (EP4 mRNA [3]; [7]): rapidly increased EP4 mRNA levels
time of peak of EP4 mRNA levels in tibial diaphysis after injection (EP4 mRNA [3]; [7]): 2 h
effect on expression of EP4 in tibiae and calvariae (EP4 mRNA [3]; [8]): upregulates the expression of EP4
time of peak of EP4 upregulation in tibiae and calvariae (EP4 mRNA [3]; [8]): 1 to 2 h
induction of EP2 mRNA in RP-1 cells and bone tissue (EP2 mRNA [4]): does not include EP2 mRNA
EP2 mRNA expression before or after treatment (EP2 mRNA [5]): not expressed
effect on intracellular cAMP (RCT-3 cells): markedly induced
effect on intracellular cAMP (TRAB-11 cells): markedly induced
effect on EP4 mRNA levels (EP4 mRNA [6]): rapidly increases EP4 mRNA levels; also recorded: increases the level of EP4 mRNA
time of peak of EP4 mRNA levels after treatment (EP4 mRNA [6]): 2 h
